In ChEMBL document CHEMBL4184262, “Iodine mediated pyrazolo-quinoline derivatives as potent anti-proliferative agents” (Bioorg Med Chem Lett, 2018):
pIC50: −log10 of the molar value.

What was measured:
Type in all cases: functional, cell-based
SK-N-SH = test: Antiproliferative activity against human SK-N-SH cells incubated for 24 hrs by MTT assay
A549 = test: Antiproliferative activity against human A549 cells incubated for 24 hrs by MTT assay; details: A549, 24 h
HeLa = test: Antiproliferative activity against human HeLa cells incubated for 24 hrs by MTT assay
HepG2 = test: Antiproliferative activity against human HepG2 cells incubated for 24 hrs by MTT assay; details: HepG2, 24 h
MCF7 = test: Antiproliferative activity against human MCF7 cells incubated for 24 hrs by MTT assay; details: MCF7, 24 h

| SMILES | pIC50 (SK-N-SH) | pIC50 (A549) | pIC50 (HeLa) | pIC50 (HepG2) | pIC50 (MCF7) |
| --- | --- | --- | --- | --- | --- |
| COc1ccc(-c2nc3ccccc3c3c2c(-c2ccc(Br)cc2)nn3-c2ccccc2)c(OC)c1 | 5.42 | 4.39 | 4.92 | 4.37 | 4.98 |
| Brc1ccc(-c2nn(-c3ccccc3)c3c2c(-c2ccccc2)nc2ccccc23)cc1 | 5.22 | 5.31 | 4.84 | 4.84 | 4.91 |
| Clc1ccc(-c2nc3ccccc3c3c2c(-c2ccccc2)nn3-c2ccccc2)cc1 | 5.18 | 5.09 | 5.25 | 4.97 | 4.95 |
| Clc1ccc(-c2nc3ccccc3c3c2c(-c2ccc(Br)cc2)nn3-c2ccccc2)cc1 | 5.26 | 5.06 | 5.02 | 4.68 | 4.42 |
| Clc1ccc(-c2nc3ccccc3c3c2c(-c2ccccc2)nn3-c2ccccc2)c(Cl)c1 | 4.94 | 5.09 | 5.28 | 4.08 | 4.11 |
| COc1ccccc1-c1nc2ccccc2c2c1c(-c1ccc(Br)cc1)nn2-c1ccccc1 | 5.26 | 5.07 | 5.28 | 4.52 | 3.91 |
| O=[N+]([O-])c1cccc(-c2nc3ccccc3c3c2c(-c2ccc(Br)cc2)nn3-c2ccccc2)c1 | 5.41 | 4.81 | 5.19 | 4.71 | 4.69 |
| Brc1ccc(-c2nn(-c3ccccc3)c3c2c(-c2cccc4ccccc24)nc2ccccc23)cc1 | 5.26 | 5.09 | 4.93 | 4.61 | 4.74 |
| Cc1ccc(-c2nc3ccccc3c3c2c(-c2ccccc2)nn3-c2ccccc2)cc1 | 5.30 | 4.25 | 5.13 | 4.48 | 4.62 |
| Cc1ccc(-c2nc3ccccc3c3c2c(-c2ccc(Br)cc2)nn3-c2ccccc2)cc1 | 5.34 | 5.61 | 5.08 | 4.58 | 4.71 |
| COc1ccccc1-c1nc2ccccc2c2c1c(-c1ccccc1)nn2-c1ccccc1 | 5.27 | 4.59 | 5.11 | 4.73 | 4.81 |
| Brc1ccc(-c2nn(-c3ccccc3)c3c2c(-c2ccco2)nc2ccccc23)cc1 | 5.42 | 5.06 | 5.31 | 4.52 | 4.85 |
| c1ccc(-c2nc3ccccc3c3c2c(-c2ccccc2)nn3-c2ccccc2)cc1 | 5.28 | 4.78 | 4.61 | 4.73 | 4.49 |
| Clc1ccc(-c2nc3ccccc3c3c2c(-c2ccc(Br)cc2)nn3-c2ccccc2)c(Cl)c1 | 5.15 | 5.22 | 4.09 | 3.74 | 5.22 |
| Brc1ccc(-c2nn(-c3ccccc3)c3c2c(-c2cccs2)nc2ccccc23)cc1 | 5.28 | 5.03 | 4.63 | 4.46 | 4.37 |
| COc1cccc2c1C(=O)c1c(O)c3c(c(O)c1C2=O)C[C@@](O)(C(=O)CO)C[C@@H]3O[C@H]1C[C@H](N)[C@H](O)[C@H](C)O1 [DOXORUBICIN] | 5.62 | 6.65 | – | 5.21 | – |
